Laboratory results reported in patent US10597388B2, “Pyridazinone herbicides” (FMC CORPORATION, priority 2014, dated 2020).

What was measured:
Assay in all cases: Test E greenhouse herbicide test, pre- and postemergence
Type in all cases: in vivo
[1] = system: Italian ryegrass (Lolium multiflorum)
How it was run: (§1)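 Compounds in surfactant-containing solvent are applied to soil right after sowing (silt loam) and, in parallel, to 1- to 4-leaf plants in a peat-based medium. Weed control is scored visually on a 0 (none) to 100 (complete) scale at 14 to 21 d.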

[2] = system: arrowleaf sida (Sida rhombifolia)
How it was run: as §1

[3] = system: barnyardgrass (Echinochloa crus-galli)
How it was run: as §1

[4] = system: corn (Zea mays)
How it was run: as §1

[5] = system: crabgrass, Brazilian (Brazilian crabgrass, Digitaria horizontalis)
How it was run: as §1

[6] = system: dayflower (Virginia (VA) dayflower, Commelina virginica)
How it was run: as §1

[7] = system: foxtail, green (green foxtail, Setaria viridis); conditions: Preemergence
How it was run: as §1

[8] = system: goosegrass (Eleusine indica); conditions: Preemergence
How it was run: as §1

[9] = system: horseweed (Conyza canadensis)
How it was run: as §1

[10] = system: momingglory (Ipomoea coccinea); conditions: Preemergence
How it was run: as §1

[11] = system: nutsedge, yellow (yellow nutsedge, Cyperus esculentus); conditions: Preemergence
How it was run: as §1

[12] = system: panicum, fall (fall panicum, Panicum dichotomiflorum)
How it was run: as §1

[13] = system: ragweed (common ragweed, Ambrosia elatior)
How it was run: as §1

[14] = system: sandbur (southem sandbur, Cenchrus echinatus)
How it was run: as §1

[15] = system: soybean (Glycine max)
How it was run: as §1

[16] = 62 g ai/ha, Postemergence, scale 0 to 100 (0 no effect, 100 complete control)
[17] = 62 g ai/ha, Preemergence, scale 0 to 100 (0 no effect, 100 complete control)
[18] = 125 g ai/ha, Postemergence, scale 0 to 100 (0 no effect, 100 complete control)
[19] = 125 g ai/ha, Preemergence, scale 0 to 100 (0 no effect, 100 complete control)
[20] = 250 g ai/ha, Postemergence, scale 0 to 100 (0 no effect, 100 complete control)
[21] = Postemergence, 31 g ai/ha, visual, scale 0 no effect to 100 complete control
[22] = Preemergence, 31 g ai/ha, scale 0 to 100, 0 no effect, 100 complete control
[23] = Preemergence, 250 g ai/ha, visual, scale 0 no effect to 100 complete control
[24] = Preemergence, 125 g ai/ha, visual, scale 0 no effect to 100 complete control
[25] = 62 g ai/ha, scale 0 to 100 (0 no effect, 100 complete control)
[26] = 31 g ai/ha, scale 0 to 100, 0 no effect, 100 complete control
[27] = 125 g ai/ha, visual, scale 0 no effect to 100 complete control
[28] = 250 g ai/ha, visual, scale 0 no effect to 100 complete control
[29] = 125 g ai/ha, scale 0 to 100 (0 no effect, 100 complete control)

Cn1nc(Br)c(O)c(-c2cccc3ccccc23)c1=O [Compound 20]
98: Plant response rating, Ryegrass, Italian [1, 19] | Plant response rating, Panicum, Fall [12, 23] | Plant response rating, Ragweed [13, 23]
50: Plant response rating, Ryegrass, Italian [1, 16] | Plant response rating, Barnyardgrass [3, 16] | Plant response rating, Crabgrass, Brazil [5, 20] | Plant response rating, Dayflower, VA [6, 18] | Plant response rating, Dayflower, VA [6, 20] | Plant response rating, Goosegrass [8, 27] | Plant response rating, Nutsedge, Yellow [11, 25] | Plant response rating, Panicum, Fall [12, 20]
60: Plant response rating, Arrowleaf Sida [2, 16] | Plant response rating, Barnyardgrass [3, 18] | Plant response rating, Crabgrass, Brazil [5, 17]
75: Plant response rating, Morningglory [10, 25] | Plant response rating, Nutsedge, Yellow [11, 29] | Plant response rating, Ragweed [13, 16] | Plant response rating, Sandbur [14, 23]
100: Plant response rating, Ryegrass, Italian [1, 23] | Plant response rating, Horseweed [9, 17] | Plant response rating, Horseweed [9, 22] | Plant response rating, Horseweed [9, 24] | Plant response rating, Horseweed [9, 23]
20: Plant response rating, Crabgrass, Brazil [5, 16] | Plant response rating, Crabgrass, Brazil [5, 18] | Plant response rating, Goosegrass [8, 26] | Plant response rating, Morningglory [10, 26] | Plant response rating, Sandbur [14, 16] | Plant response rating, Soybean [15, 16] | Plant response rating, Soybean [15, 19] | Plant response rating, Soybean [15, 21]
90: Plant response rating, Ryegrass, Italian [1, 22] | Plant response rating, Crabgrass, Brazil [5, 23] | Plant response rating, Morningglory [10, 29]
30: Plant response rating, Barnyardgrass [3, 21] | Plant response rating, Barnyardgrass [3, 23] | Plant response rating, Panicum, Fall [12, 18] | Plant response rating, Ragweed [13, 22] | Plant response rating, Sandbur [14, 18] | Plant response rating, Soybean [15, 20]
95: Plant response rating, Ryegrass, Italian [1, 17] | Plant response rating, Arrowleaf Sida [2, 23] | Plant response rating, Morningglory [10, 28] | Plant response rating, Nutsedge, Yellow [11, 28]
85: Plant response rating, Arrowleaf Sida [2, 24] | Plant response rating, Goosegrass [8, 28] | Plant response rating, Horseweed [9, 20] | Plant response rating, Ragweed [13, 18]
40: Plant response rating, Ryegrass, Italian [1, 21] | Plant response rating, Arrowleaf Sida [2, 21] | Plant response rating, Crabgrass, Brazil [5, 22] | Plant response rating, Foxtail, Green [7, 25] | Plant response rating, Sandbur [14, 20] | Plant response rating, Soybean [15, 18]
10: Plant response rating, Barnyardgrass [3, 24] | Plant response rating, Crabgrass, Brazil [5, 21] | Plant response rating, Dayflower, VA [6, 16] | Plant response rating, Goosegrass [8, 25]
80: Plant response rating, Ryegrass, Italian [1, 20] | Plant response rating, Arrowleaf Sida [2, 20] | Plant response rating, Barnyardgrass [3, 20] | Plant response rating, Horseweed [9, 16] | Plant response rating, Ragweed [13, 20]
0: Plant response rating, Arrowleaf Sida [2, 22] | Plant response rating, Barnyardgrass [3, 17] | Plant response rating, Barnyardgrass [3, 22] | Plant response rating, Corn [4, 16] | Plant response rating, Corn [4, 17] | Plant response rating, Corn [4, 18] | Plant response rating, Corn [4, 21] | Plant response rating, Corn [4, 22] | Plant response rating, Corn [4, 24] | Plant response rating, Corn [4, 23] | Plant response rating, Dayflower, VA [6, 17] | Plant response rating, Dayflower, VA [6, 21] | Plant response rating, Dayflower, VA [6, 22] | Plant response rating, Dayflower, VA [6, 24] | Plant response rating, Dayflower, VA [6, 23] | Plant response rating, Foxtail, Green [7, 26] | Plant response rating, Nutsedge, Yellow [11, 26] | Plant response rating, Panicum, Fall [12, 21] | Plant response rating, Panicum, Fall [12, 22] | Plant response rating, Sandbur [14, 17] | Plant response rating, Sandbur [14, 22] | Plant response rating, Soybean [15, 17] | Plant response rating, Soybean [15, 22]
15: Plant response rating, Corn [4, 20] | Plant response rating, Panicum, Fall [12, 16] | Plant response rating, Sandbur [14, 21]
35: Plant response rating, Panicum, Fall [12, 17]
70: Plant response rating, Ryegrass, Italian [1, 18] | Plant response rating, Arrowleaf Sida [2, 17] | Plant response rating, Arrowleaf Sida [2, 18] | Plant response rating, Crabgrass, Brazil [5, 24] | Plant response rating, Foxtail, Green [7, 28] | Plant response rating, Horseweed [9, 18] | Plant response rating, Horseweed [9, 21] | Plant response rating, Ragweed [13, 19]
65: Plant response rating, Foxtail, Green [7, 27] | Plant response rating, Panicum, Fall [12, 19] | Plant response rating, Ragweed [13, 17] | Plant response rating, Ragweed [13, 21] | Plant response rating, Sandbur [14, 19]

CCc1sc2c(C)cc(C)cc2c1-c1c(O)c(C)nn(C)c1=O [Compound 57]
10: Plant response rating, Ryegrass, Italian [1, 22] | Plant response rating, Arrowleaf Sida [2, 21] | Plant response rating, Corn [4, 16] | Plant response rating, Dayflower, VA [6, 21] | Plant response rating, Goosegrass [8, 26] | Plant response rating, Soybean [15, 20] | Plant response rating, Soybean [15, 21]
70: Plant response rating, Crabgrass, Brazil [5, 23] | Plant response rating, Nutsedge, Yellow [11, 28] | Plant response rating, Panicum, Fall [12, 18] | Plant response rating, Sandbur [14, 20]
35: Plant response rating, Ryegrass, Italian [1, 17] | Plant response rating, Dayflower, VA [6, 18]
5: Plant response rating, Goosegrass [8, 27] | Plant response rating, Goosegrass [8, 28]
25: Plant response rating, Dayflower, VA [6, 17]
85: Plant response rating, Barnyardgrass [3, 16] | Plant response rating, Morningglory [10, 26]
40: Plant response rating, Arrowleaf Sida [2, 18] | Plant response rating, Arrowleaf Sida [2, 23] | Plant response rating, Crabgrass, Brazil [5, 24] | Plant response rating, Morningglory [10, 25] | Plant response rating, Panicum, Fall [12, 21]
98: Plant response rating, Panicum, Fall [12, 17]
75: Plant response rating, Barnyardgrass [3, 24] | Plant response rating, Horseweed [9, 16] | Plant response rating, Horseweed [9, 18]
0: Plant response rating, Ryegrass, Italian [1, 16] | Plant response rating, Ryegrass, Italian [1, 21] | Plant response rating, Arrowleaf Sida [2, 17] | Plant response rating, Arrowleaf Sida [2, 22] | Plant response rating, Barnyardgrass [3, 17] | Plant response rating, Barnyardgrass [3, 22] | Plant response rating, Corn [4, 17] | Plant response rating, Corn [4, 22] | Plant response rating, Corn [4, 24] | Plant response rating, Corn [4, 23] | Plant response rating, Crabgrass, Brazil [5, 17] | Plant response rating, Crabgrass, Brazil [5, 22] | Plant response rating, Dayflower, VA [6, 22] | Plant response rating, Foxtail, Green [7, 26] | Plant response rating, Goosegrass [8, 25] | Plant response rating, Nutsedge, Yellow [11, 26] | Plant response rating, Sandbur [14, 17] | Plant response rating, Sandbur [14, 22] | Plant response rating, Soybean [15, 16] | Plant response rating, Soybean [15, 17] | Plant response rating, Soybean [15, 19] | Plant response rating, Soybean [15, 22]
65: Plant response rating, Ryegrass, Italian [1, 19] | Plant response rating, Sandbur [14, 18]
20: Plant response rating, Ryegrass, Italian [1, 18] | Plant response rating, Arrowleaf Sida [2, 16] | Plant response rating, Crabgrass, Brazil [5, 16] | Plant response rating, Crabgrass, Brazil [5, 18] | Plant response rating, Foxtail, Green [7, 25] | Plant response rating, Soybean [15, 23]
90: Plant response rating, Barnyardgrass [3, 18] | Plant response rating, Barnyardgrass [3, 20] | Plant response rating, Foxtail, Green [7, 27] | Plant response rating, Ragweed [13, 22]
60: Plant response rating, Horseweed [9, 21] | Plant response rating, Nutsedge, Yellow [11, 29] | Plant response rating, Panicum, Fall [12, 16] | Plant response rating, Ragweed [13, 16] | Plant response rating, Sandbur [14, 16]
50: Plant response rating, Ryegrass, Italian [1, 20] | Plant response rating, Arrowleaf Sida [2, 24] | Plant response rating, Ragweed [13, 21] | Plant response rating, Sandbur [14, 21]
100: Plant response rating, Barnyardgrass [3, 23] | Plant response rating, Foxtail, Green [7, 28] | Plant response rating, Morningglory [10, 29] | Plant response rating, Morningglory [10, 28] | Plant response rating, Panicum, Fall [12, 19] | Plant response rating, Panicum, Fall [12, 23] | Plant response rating, Ragweed [13, 17] | Plant response rating, Ragweed [13, 19] | Plant response rating, Ragweed [13, 23]
80: Plant response rating, Ryegrass, Italian [1, 23] | Plant response rating, Barnyardgrass [3, 21] | Plant response rating, Dayflower, VA [6, 23] | Plant response rating, Horseweed [9, 20] | Plant response rating, Panicum, Fall [12, 20] | Plant response rating, Sandbur [14, 23]
30: Plant response rating, Crabgrass, Brazil [5, 20] | Plant response rating, Dayflower, VA [6, 20] | Plant response rating, Dayflower, VA [6, 24] | Plant response rating, Nutsedge, Yellow [11, 25] | Plant response rating, Sandbur [14, 19]
95: Plant response rating, Panicum, Fall [12, 22] | Plant response rating, Ragweed [13, 18] | Plant response rating, Ragweed [13, 20]
15: Plant response rating, Corn [4, 18] | Plant response rating, Corn [4, 20] | Plant response rating, Corn [4, 21] | Plant response rating, Crabgrass, Brazil [5, 21] | Plant response rating, Dayflower, VA [6, 16] | Plant response rating, Soybean [15, 18]
45: Plant response rating, Arrowleaf Sida [2, 20]
